From PubChem BioAssay AID256 (DTP/NCI, 2004)
Values joined by “and” are separate entries in the source; they are usually repeats but may differ in a detail not shown here. Equal values may be shown once. Inconclusive results and toxic doses are left out. How the source made its calls: active means survival T/C of 150% or more; inactive means T/C below 125% in these data.

System: CD2F1 mice, L1210 leukemia ip, survival T/C
Assay: NCI In Vivo Anticancer Drug Screen. Data for tumor model L1210 Leukemia (intraperitoneal) in CD2F1 (CDF1) mice
Details: higher = longer survival
Method in brief: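 Ratio T/C, where T is the treated-group value and C the vehicle-dosed control value, from mice implanted with a transplantable tumor.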

[1] = endpoint: mean survival time, dose: 25.0 mg/kg/injection, schedule: Q04DX003 (ip), vehicle: saline with Tween-80
[2] = endpoint: mean survival time, dose: 100.0 mg/kg/injection, schedule: Q01DX009 (ip), vehicle: saline
[3] = endpoint: mean survival time, dose: 200.0 mg/kg/injection, schedule: Q01DX009 (ip), vehicle: saline
[4] = endpoint: mean survival time, dose: 400.0 mg/kg/injection, schedule: Q01DX009 (ip), vehicle: saline
[5] = endpoint: mean survival time, dose: 100.0 mg/kg/injection, schedule: Q04DX003 (ip), vehicle: saline with Tween-80
[6] = endpoint: mean survival time, dose: 100.0 mg/kg/injection, schedule: Q01DX009 (ip), vehicle: saline with Tween-80
[7] = endpoint: mean survival time, dose: 200.0 mg/kg/injection, schedule: Q01DX009 (ip), vehicle: saline with Tween-80

Measured: T/C

[Cl][Pt+2][Cl].[NH-]C(c1ccccc1)C([NH-])c1ccccc1 (stereo not given)
inactive: endpoint: mean survival time, dose: 6.25 mg/kg/injection, schedule: Q04DX003 (ip), vehicle: saline with Tween-80 112 % of control and 110 % of control and 96 % of control | endpoint: mean survival time, dose: 12.5 mg/kg/injection, schedule: Q04DX003 (ip), vehicle: saline with Tween-80 102 % of control and 114 % of control and 106 % of control | [1] 120 % of control and 124 % of control and 114 % of control | endpoint: median survival time, dose: 10.0 mg/kg/injection, schedule: Q04DX003 (ip), vehicle: Klucel (hydroxypropylcellulose) (HPC) 111 % of control | endpoint: median survival time, dose: 20.0 mg/kg/injection, schedule: Q04DX003 (ip), vehicle: Klucel (hydroxypropylcellulose) (HPC) 113 % of control | endpoint: median survival time, dose: 40.0 mg/kg/injection, schedule: Q04DX003 (ip), vehicle: Klucel (hydroxypropylcellulose) (HPC) 122 % of control | endpoint: median survival time, dose: 50.0 mg/kg/injection, schedule: Q04DX003 (ip), vehicle: Klucel (hydroxypropylcellulose) (HPC) 101 % of control | endpoint: median survival time, dose: 80.0 mg/kg/injection, schedule: Q04DX003 (ip), vehicle: Klucel (hydroxypropylcellulose) (HPC) 112 % of control | endpoint: median survival time, dose: 100.0 mg/kg/injection, schedule: Q04DX003 (ip), vehicle: Klucel (hydroxypropylcellulose) (HPC) 107 % of control | endpoint: median survival time, dose: 200.0 mg/kg/injection, schedule: Q04DX003 (ip), vehicle: Klucel (hydroxypropylcellulose) (HPC) 107 % of control

CCCCCCCCCCCCCCCC[N+](C)(CCO)Cc1ccccc1 (stereo not given)
inactive: endpoint: mean survival time, dose: 3.13 mg/kg/injection, schedule: Q04DX002 (ip), vehicle: saline with Tween-80 100 % of control | endpoint: mean survival time, dose: 6.25 mg/kg/injection, schedule: Q04DX002 (ip), vehicle: saline with Tween-80 100 % of control | endpoint: mean survival time, dose: 12.5 mg/kg/injection, schedule: Q04DX002 (ip), vehicle: saline with Tween-80 96 % of control

COc1ccc(C(=O)/C=C/c2ccc(N(C)C)cc2)cc1
inactive: endpoint: mean survival time, dose: 75.0 mg/kg/injection, schedule: Q01DX001 (ip), vehicle: saline 95 % of control | endpoint: mean survival time, dose: 150.0 mg/kg/injection, schedule: Q01DX001 (ip), vehicle: saline 93 % of control

CCC(C)(O)Cc1cnccn1 (stereo not given)
inactive: [2] 108 % of control | [3] 97 % of control | [4] 96 % of control

CC1=C(C)C(C(=O)O)C1C(=O)O (stereo not given)
inactive: endpoint: mean survival time, dose: 100.0 mg/kg/injection, schedule: Q01DX001 (ip), vehicle: saline with Tween-80 88 % of control | endpoint: mean survival time, dose: 200.0 mg/kg/injection, schedule: Q01DX001 (ip), vehicle: saline with Tween-80 97 % of control

Cc1c2ccccc2cc2cccc[n+]12
inactive: endpoint: mean survival time, dose: 2.5 mg/kg/injection, schedule: Q01DX009 (ip), vehicle: saline 95 % of control and 100 % of control | endpoint: mean survival time, dose: 5.0 mg/kg/injection, schedule: Q01DX009 (ip), vehicle: saline 95 % of control and 101 % of control | endpoint: mean survival time, dose: 10.0 mg/kg/injection, schedule: Q01DX009 (ip), vehicle: saline 102 % of control and 110 % of control | endpoint: mean survival time, dose: 20.0 mg/kg/injection, schedule: Q01DX009 (ip), vehicle: saline 97 % of control and 106 % of control

OCC1(O)OCC(O)C(F)C1O (stereo not given)
inactive: [2] 96 % of control | endpoint: mean survival time, dose: 100.0 mg/kg/injection, schedule: Q04DX003 (ip), vehicle: saline 88 % of control | [3] 96 % of control | endpoint: mean survival time, dose: 200.0 mg/kg/injection, schedule: Q04DX003 (ip), vehicle: saline 89 % of control | [4] 94 % of control | endpoint: mean survival time, dose: 400.0 mg/kg/injection, schedule: Q04DX003 (ip), vehicle: saline 91 % of control

O=C(NCc1ccccc1)c1ccc([N+](=O)[O-])cc1
inactive: endpoint: mean survival time, dose: 100.0 mg/kg/injection, schedule: Q04DX002 (ip), vehicle: other 97 % of control | endpoint: mean survival time, dose: 200.0 mg/kg/injection, schedule: Q04DX002 (ip), vehicle: other 101 % of control | endpoint: mean survival time, dose: 400.0 mg/kg/injection, schedule: Q04DX002 (ip), vehicle: other 97 % of control

O=C1Cc2ccccc2C(=O)N1
inactive: endpoint: mean survival time, dose: 100.0 mg/kg/injection, schedule: Q01DX009 (ip), vehicle: saline sonified 97 % of control | endpoint: mean survival time, dose: 200.0 mg/kg/injection, schedule: Q01DX009 (ip), vehicle: saline sonified 98 % of control | endpoint: mean survival time, dose: 400.0 mg/kg/injection, schedule: Q01DX009 (ip), vehicle: saline sonified 89 % of control

O=C1C(Cl)=C(Nc2nc3ccccc3s2)C(=O)c2ccccc21
inactive: endpoint: mean survival time, dose: 25.0 mg/kg/injection, schedule: Q01DX001 (ip), vehicle: Klucel (hydroxypropylcellulose) (HPC) 102 % of control | endpoint: mean survival time, dose: 50.0 mg/kg/injection, schedule: Q01DX001 (ip), vehicle: Klucel (hydroxypropylcellulose) (HPC) 96 % of control | endpoint: mean survival time, dose: 100.0 mg/kg/injection, schedule: Q01DX001 (ip), vehicle: Klucel (hydroxypropylcellulose) (HPC) 98 % of control

Cn1cc(C(O)CN2CCCCC2)c2ccccc21 (stereo not given)
inactive: [5] 93 % of control

COc1ccc(Cc2c[n+](C)cc3cc(N=O)c(OC)cc23)cc1O
inactive: endpoint: mean survival time, dose: 100.0 mg/kg/injection, schedule: Q01DX001 (ip), vehicle: saline 104 % of control | endpoint: mean survival time, dose: 200.0 mg/kg/injection, schedule: Q01DX001 (ip), vehicle: saline 102 % of control

CN(C)C(Cl)(Cl)Nc1ccc(Cl)cc1
inactive: [6] 91 % of control | [7] 107 % of control | endpoint: mean survival time, dose: 400.0 mg/kg/injection, schedule: Q01DX009 (ip), vehicle: saline with Tween-80 113 % of control

N#CC(C#N)=Cc1ccc2c(c1)CCC2
inactive: endpoint: mean survival time, dose: 25.0 mg/kg/injection, schedule: Q01DX009 (ip), vehicle: saline with Tween-80 93 % of control | [1] 100 % of control | endpoint: mean survival time, dose: 50.0 mg/kg/injection, schedule: Q01DX009 (ip), vehicle: saline with Tween-80 96 % of control | endpoint: mean survival time, dose: 50.0 mg/kg/injection, schedule: Q04DX003 (ip), vehicle: saline with Tween-80 90 % of control | [6] 94 % of control | [5] 95 % of control

CCCC[N+](CCCC)(CCCC)Cc1ccccc1
inactive: endpoint: mean survival time, dose: 1.5 mg/kg/injection, schedule: Q04DX003 (ip), vehicle: saline 100 % of control | endpoint: mean survival time, dose: 3.0 mg/kg/injection, schedule: Q04DX003 (ip), vehicle: saline 97 % of control | endpoint: mean survival time, dose: 6.0 mg/kg/injection, schedule: Q04DX003 (ip), vehicle: saline 94 % of control

COc1cc(Cl)ccc1NC(=O)Oc1ccc(C)cc1[N+](=O)[O-]
inactive: endpoint: mean survival time, dose: 5.0 mg/kg/injection, schedule: Q01DX009 (ip), vehicle: saline with Tween-80 93 % of control | [6] 96 % of control | [7] 96 % of control

CC1[N-]CCC[N-]CCC[N-]C(C)C2CCCC1[N-]2.[Ni+2].[O-][Cl+3]([O-])([O-])O (stereo not given)
inactive: endpoint: mean survival time, dose: 50.0 mg/kg/injection, schedule: Q04DX002 (ip), vehicle: saline with Tween-80 104 % of control | endpoint: mean survival time, dose: 100.0 mg/kg/injection, schedule: Q04DX002 (ip), vehicle: saline with Tween-80 101 % of control and 104 % of control | endpoint: mean survival time, dose: 200.0 mg/kg/injection, schedule: Q04DX002 (ip), vehicle: saline with Tween-80 93 % of control
